Among the data in patent US10906890B2, “Triazole phenyl compounds as agonists of the APJ receptor” (AMGEN INC., priority 2016, dated 2021) are EC50 values, retold here.

This assay concerns the target human APJ receptor (Homo sapiens (Human), UniProt P35414). Kind of assay: [35S]GTPγS binding assay on membranes from CHO cells stably expressing human APJ receptor. It counts as biochemical. The settings on record: means of several independent experiments, read-out: Activity hAPJ SPA EC50 IP. Here is the method:
The human APJ receptor was cloned by polymerase chain reaction and the gene encoding the receptor was subcloned in pFLAG-CMV™-3 expression vector (Sigma, Saint Louis, Mo. USA) in-house at Amgen. A GTPγS binding assay was performed on membranes prepared from CHO cells stably expressing human APJ receptor. The optimum experimental conditions for the concentrations of GDP, MgCl2, and NaCl in the assay buffer were initially determined. […] Incubation was at RT for 90 min and the microplate was read using a ViewLux™ ultra HTS Microplate Imager (PerkinElmer, Inc.). All the results presented are means of several independent experiments and analyzed by non-linear regression methods using the commercially available program Prism (GraphPad, San Diego, Calif.) providing the EC50 values detailed in Table 28.
Background: GTPγS is a poorly hydrolysed GTP analogue; its binding reports G protein activation.

Chain of human APJ receptor (P35414 whole entry): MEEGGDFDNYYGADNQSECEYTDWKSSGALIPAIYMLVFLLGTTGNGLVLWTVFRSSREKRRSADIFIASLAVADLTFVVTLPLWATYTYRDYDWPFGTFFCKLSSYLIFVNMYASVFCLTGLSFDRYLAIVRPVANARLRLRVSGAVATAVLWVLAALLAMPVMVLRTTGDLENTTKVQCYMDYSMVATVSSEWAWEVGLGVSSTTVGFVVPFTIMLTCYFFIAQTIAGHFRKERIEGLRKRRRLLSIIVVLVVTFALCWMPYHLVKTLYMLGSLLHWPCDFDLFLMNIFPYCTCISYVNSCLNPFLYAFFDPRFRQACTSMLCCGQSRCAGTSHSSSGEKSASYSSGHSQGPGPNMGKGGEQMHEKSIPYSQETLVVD

As to `COc1cccc(OC)c1-n1c(NS(=O)(=O)[C@@H](C)[C@H](OC)c2ncc(C)cn2)nnc1-c1ccc(Cl)c(Cl)c1` [Example 70.0, (1R,2S)-N-(5-(3,4-dichlorophenyl)-4-(2,6-dimethoxyphenyl)-4H-1,2,4-triazol-3-yl)-1-methoxy-1-(5-methyl-2-pyrimidinyl)-2-propanesulfonamide], the EC50 – broadly, the concentration giving half of the maximal effect – came out at 3.8 nM.

On to `COc1cccc(OC)c1-n1c(NS(=O)(=O)[C@@H](C)[C@H](OC)c2ncc(C)cn2)nnc1-c1ccc(Cl)cc1Cl` [Example 71.0, (1R,2S)-N-(5-(2,4-dichlorophenyl)-4-(2,6-dimethoxyphenyl)-4H-1,2,4-triazol-3-yl)-1-methoxy-1-(5-methyl-2-pyrimidinyl)-2-propanesulfonamide], for which the EC50 amounted to 160 nM.

On to `COc1cccc(OC)c1-n1c(NS(=O)(=O)[C@@H](C)[C@H](OC)c2ncc(C)cn2)nnc1-c1cccc(S(=O)(=O)N(C)C)c1` [Example 73.0, 3-(4-(2,6-dimethoxyphenyl)-5-((((1S,2R)-2-methoxy-1-methyl-2-(5-methyl-2-pyrimidinyl)ethyl)sulfonyl)amino)-4H-1,2,4-triazol-3-yl)-N,N-dimethylbenzenesulfonamide], for which the concentration for a half-maximal effect (EC50) worked out at 31 nM.

Consider `COc1cccc(OC)c1-n1c(NS(=O)(=O)[C@H]2C[C@@H](OC(C)C)CN(c3ncc(F)cn3)C2)nnc1-c1ccccc1` (single isomer, unassigned) [Example 59.0, (3R,5S)-N-(4-(2,6-dimethoxyphenyl)-5-phenyl-4H-1,2,4-triazol-3-yl)-1-(5-fluoro-2-pyrimidinyl)-5-(1-methylethoxy)-3-piperidinesulfonamide or (3S,5R)-N-(4-(2,6-dimethoxyphenyl)-5-phenyl-4H-1,2,4-triazol-3-yl)-1-(5-fluoro-2-pyrimidinyl)-5-(1-methylethoxy)-3-piperidinesulfonamide], for which the EC50 is 86 nM.

Take `COc1cccc(OC)c1-n1c(NS(=O)(=O)[C@@H](C)[C@H](OC)c2ncc(C)cn2)nnc1-c1cccc2cn(C)nc12` [Example 92.0]: the EC50 was found to be 60 nM.

In the case of `COc1cccc(OC)c1-n1c(NS(=O)(=O)CCc2ccc(F)cc2C#N)nnc1-c1ccccc1` [Example 12.0, 2-(2-cyano-4-fluorophenyl)-N-(4-(2,6-dimethoxyphenyl)-5-phenyl-4H-1,2,4-triazol-3-yl)ethanesulfonamide], the concentration giving a half-maximal response (EC50) is 8.5 nM.

In the case of `COc1cccc(OC)c1-n1c(NS(=O)(=O)[C@@H](C)[C@H](OC)c2ncc(C)cn2)nnc1-c1ccc2nc(N)sc2c1` [Example 74.0, (1R,2S)-N-(5-(2-amino-1,3-benzothiazol-6-yl)-4-(2,6-dimethoxyphenyl)-4H-1,2,4-triazol-3-yl)-1-methoxy-1-(5-methyl-2-pyrimidinyl)-2-propanesulfonamide], the concentration giving a half-maximal response (EC50) was found to be 140 nM.

Turning to `COc1cccc(OC)c1-n1c(NS(=O)(=O)[C@@H](C)[C@H](OC)c2ncc(C)cn2)nnc1-c1ccccc1` [Example 77.0, (1R,2S)-N-(4-(2,6-dimethoxyphenyl)-5-phenyl-4H-1,2,4-triazol-3-yl)-1-methoxy-1-(5-methyl-2-pyrimidinyl)-2-propanesulfonamide], the EC50 was 1 nM.

In the case of `COc1cccc(OC)c1-n1c(NS(=O)(=O)c2cncc(Br)c2)nnc1-c1ccccc1` [Example 60.0, 5-bromo-N-(4-(2,6-dimethoxyphenyl)-5-phenyl-4H-1,2,4-triazol-3-yl)-3-pyridinesulfonamide], the concentration for a half-maximal effect (EC50) was 350 nM.

For the molecule `COc1ncnc(OC)c1-n1c(NS(=O)(=O)CCc2ccc(F)cc2C#N)nnc1-c1ccccc1` [Example 10.0, 2-(2-cyano-4-fluorophenyl)-N-(4-(4,6-dimethoxy-5-pyrimidinyl)-5-phenyl-4H-1,2,4-triazol-3-yl)ethanesulfonamide], the EC50 came out at 42 nM.

For `COc1ncnc(OC)c1-n1c(NS(=O)(=O)[C@@H](C)[C@H](C)c2ccc(Cl)cn2)nnc1-c1ccccc1` [Example 127.0], the EC50 turned out to be 0.96 nM.

On to `COc1cccc(OC)c1-n1c(NS(=O)(=O)[C@H]2CCCN(c3ncc(Cl)cn3)C2)nnc1-c1ccccc1` (single isomer, unassigned) [Example 35.0, (S)-1-(5-Chloropyrimidin-2-yl)-N-(4-(2,6-dimethoxyphenyl)-5-phenyl-4H-1,2,4-triazol-3-yl)piperidine-3-sulfonamide or (R)-1-(5-chloropyrimidin-2-yl)-N-(4-(2,6-dimethoxyphenyl)-5-phenyl-4H-1,2,4-triazol-3-yl)piperidine-3-sulfonamide], for which the EC50 is 280 nM.

Consider `COc1ncnc(OC)c1-n1c(NS(=O)(=O)[C@@H](C)[C@H](C)c2ncc(C)cn2)nnc1-c1ccccc1` [Example 5.0, (2S,3R)-N-(4-(4,6-dimethoxy-5-pyrimidinyl)-5-phenyl-4H-1,2,4-triazol-3-yl)-3-(5-methyl-2-pyrimidinyl)-2-butanesulfonamide], for which the EC50 turned out to be 2.3 nM.

Turning to `COc1ncnc(OC)c1-n1c(NS(=O)(=O)[C@@H](C)[C@H](OC)c2ncc(C)cn2)nnc1-c1cccc(C#N)c1` [Example 2.0, (1R,2S)-N-(5-(3-cyanophenyl)-4-(4,6-dimethoxypyrimidin-5-yl)-4H-1,2,4-triazol-3-yl)-1-methoxy-1-(5-methylpyrimidin-2-yl)propane-2-sulfonamide], the EC50 came out at 110 nM.

For `COc1cccc(OC)c1-n1c(NS(=O)(=O)[C@@H](C)[C@H](C)c2cnc(C)cn2)nnc1-c1ccccc1` [Example 25.0, (2S,3R)-N-(4-(2,6-dimethoxyphenyl)-5-phenyl-4H-1,2,4-triazol-3-yl)-3-(5-methyl-2-pyrazinyl)-2-butanesulfonamide], the concentration for a half-maximal effect (EC50) was determined as 1.3 nM.

Take `CO[C@H](c1ncc(Cl)cn1)[C@H](C)S(=O)(=O)Nc1nnc(-c2ccccc2)n1C1(C)CC1` [Example 98.0]: the EC50 was determined as 3.3 nM.

Turning to `COc1cccc(OC)c1-n1c(NS(=O)(=O)[C@@H](C)[C@H](OC)c2ncc(C)cn2)nnc1-c1cccc(F)c1` [Example 85.0, (1R,2S)—N-(4-(2,6-Dimethoxyphenyl)-5-(3-fluorophenyl)-4H-1,2,4-triazol-3-yl)-1-methoxy-1-(5-methyl-2-pyrimidinyl)-2-propanesulfonamide], the EC50 was determined as 0.92 nM.

Consider `COc1cccc(OC)c1-n1c(NS(=O)(=O)[C@@H](C)[C@H](OC)c2ncc(C)cn2)nnc1-c1cccc(OC(F)(F)F)c1` [Example 89.0, (1R,2S)—N-(4-(2,6-Dimethoxyphenyl)-5-(3-(trifluoromethoxy)phenyl)-4H-1,2,4-triazol-3-yl)-1-methoxy-1-(5-methyl-2-pyrimidinyl)-2-propanesulfonamide], for which the EC50 was 0.47 nM.

Turning to `COc1cnc([C@@H](C)[C@H](C)S(=O)(=O)Nc2nnc(-c3ccccc3Br)n2C2COC(C)(C)OC2)nc1` [Example 128.0], the EC50 stood at 910 nM.

`COCC(COC)n1c(NS(=O)(=O)[C@@H](C)[C@@H](OC(C)C)c2ncc(Cl)cn2)nnc1-c1ccccc1` [Example 123.0]: the EC50 came out at 7.2 nM.

In the case of `COc1ncnc(OC)c1-n1c(NS(=O)(=O)[C@@H](C)[C@H](C)c2ncc(C)cn2)nnc1-c1cccc(C(F)(F)F)c1` [Example 48.0], the EC50 was found to be 23 nM.

As to `COc1cccc(OC)c1-n1c(NS(=O)(=O)[C@@H](C)[C@H](OC)c2ncc(C)cn2)nnc1-c1cccc(C#N)c1` [Example 86.0, (1R,2S)-N-(5-(3-cyanophenyl)-4-(2,6-dimethoxyphenyl)-4H-1,2,4-triazol-3-yl)-1-methoxy-1-(5-methyl-2-pyrimidinyl)-2-propanesulfonamide], the concentration giving a half-maximal response (EC50) amounted to 10.6 nM.
